Laboratory results reported in US8536307B2, “Anticalins” (Pieris AG, priority 1997, dated 2013).

Legend:
[1] = biological target: T1, anticalin FluA, mutein of Pieris brassicae bilin-binding protein (Bbp): Asn34Ser, Ser35Pro, Val36Asn, Glu37Gly, Asn58Arg, His60Asp, Ile69Met, Leu88Arg, Tyr90Val (Pieris brassicae, UniProt P09464, E111K/E52G/F142H/H75D/I84M/K102S/K110R/K131R/K150M/L103R/N112T/N16D/N36Q/N49S/N73R/Q140W/S50P/V108Y/V51N/Y105V/Y129S); settings: fluorescence titration, excitation 280 nm, emission 340 nm, 1 μM anticalin, PBS with 1 mM EDTA, pH 7.4, 25° C.
[2] = biological target: anticalin FluB, mutein of Pieris brassicae bilin-binding protein (Bbp): Asn34Gln, Ser35His, Val36Trp, Glu37Asp, Asn58Arg, His60Arg, Ile69His, Glu70Lys, Leu88Val (Pieris brassicae, UniProt P09464, E52D/E85K/F142H/H75R/I84H/K102S/K110R/K131R/K150M/L103V/N112G/N16D/N36Q/N49Q/N73R/Q140W/S50H/V108R/V51W/Y105R/Y129R); settings: fluorescence titration, excitation 280 nm, emission 340 nm, 1 μM anticalin, PBS with 1 mM EDTA, pH 7.4, 25° C.
[3] = biological target: T1, anticalin FluA, mutein of Pieris brassicae bilin-binding protein (Bbp): Asn34Ser, Ser35Pro, Val36Asn, Glu37Gly, Asn58Arg, His60Asp, Ile69Met, Leu88Arg, Tyr90Val; settings: fluorescein 1 μM, excitation 490 nm, emission 512 nm, PBS with 1 mM EDTA, pH 7.4, 25° C.
[4] = biological target: recombinant Pieris brassicae bilin-binding protein (Bbp), parent (Pieris brassicae, UniProt P09464, K102S/K150M/N16D/N36Q); settings: control experiment corresponding to that with FluA, excitation 490 nm, emission 512 nm
Chain of recombinant Pieris brassicae bilin-binding protein (Bbp), parent (P09464 other isoform, or with tags, fused parts or gaps K102S/K150M/N16D/N36Q): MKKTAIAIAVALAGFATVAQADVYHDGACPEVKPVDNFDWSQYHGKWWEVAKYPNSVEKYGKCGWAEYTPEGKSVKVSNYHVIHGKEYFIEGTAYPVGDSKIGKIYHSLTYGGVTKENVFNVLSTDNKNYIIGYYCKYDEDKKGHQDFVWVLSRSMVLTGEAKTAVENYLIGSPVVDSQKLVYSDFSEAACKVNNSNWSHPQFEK

Chain of UniProt P09464 (P09464 other isoform, or with tags, fused parts or gaps with the stated changes): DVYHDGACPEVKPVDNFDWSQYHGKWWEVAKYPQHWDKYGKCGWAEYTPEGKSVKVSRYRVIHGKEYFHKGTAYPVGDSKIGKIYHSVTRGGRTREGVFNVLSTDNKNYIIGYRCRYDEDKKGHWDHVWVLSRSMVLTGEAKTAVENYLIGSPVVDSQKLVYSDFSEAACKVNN
T1 sequence (P09464 other isoform, or with tags, fused parts or gaps with the stated changes): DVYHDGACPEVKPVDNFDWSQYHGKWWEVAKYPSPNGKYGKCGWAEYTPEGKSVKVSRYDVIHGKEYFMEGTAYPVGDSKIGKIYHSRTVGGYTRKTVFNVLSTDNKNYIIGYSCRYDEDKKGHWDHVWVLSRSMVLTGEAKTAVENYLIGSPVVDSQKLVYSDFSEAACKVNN

| SMILES | Dissociation constant (Kd) [1] | Dissociation constant (Kd) [2] | Quenching of the fluorescence intensity of fluorescein in the complex [3] | Quenching of the fluorescence of fluorescein [4] |
| --- | --- | --- | --- | --- |
| O=C(O)CCCC(=O)Nc1ccc2c(c1)C(=O)OC21c2ccc(O)cc2Oc2cc(O)ccc21 [4-Glutarylamidofluorescein, 4-glutarylamido-fluorescein] | 601 ± 16 nM | 4700 ± 510 nM |  |  |
| Nc1ccc2c(c1)C(=O)OC21c2ccc(O)cc2Oc2cc(O)ccc21 [4-Aminofluorescein, 4-amino-fluorescein] | 224 ± 6 nM | 2840 ± 300 nM |  |  |
| O=C1OC2(c3ccc(O)cc3Oc3cc(O)ccc32)c2ccccc21 [Fluorescein, fluorescein] | 118 ± 14 nM | 5730 ± 860 nM | 99.7±0.3% | no comparable fluorescence quenching was found |
